# Assay results reported in paper PMC6927504, “Screening of House Dust from Chinese Homes for Chemicals with Liver X Receptors Binding Activities and Characterization of Atherosclerotic Activity Using an in Vitro Macrophage Cell Line and ApoE^−/− Mice” (Environmental Health Perspectives, 2019).
# How the values were obtained:
# human LXRα = biological target: T1, human LXRα (Homo sapiens, UniProt Q13133); experiment: cell-based
# T1 construct: expressed in transfected cells; host or cells: Saccharomyces cerevisiae Y187
# T1 sequence (Q13133 205-447): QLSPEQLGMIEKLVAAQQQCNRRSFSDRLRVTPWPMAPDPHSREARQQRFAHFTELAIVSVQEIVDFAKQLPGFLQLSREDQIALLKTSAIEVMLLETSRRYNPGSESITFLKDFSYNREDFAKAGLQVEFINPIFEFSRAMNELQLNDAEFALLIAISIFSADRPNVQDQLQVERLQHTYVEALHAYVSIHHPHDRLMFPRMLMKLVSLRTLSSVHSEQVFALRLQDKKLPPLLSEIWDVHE
# [1] = test system: mouse peritoneal macrophages; experiment: NBD-cholesterol efflux in peritoneal macrophages isolated from exposed C57BL/6 mice; format: in vivo; details: 200 mg/kg BW for 7 d
# Experimental: RAW264.7 cells or mouse peritoneal macrophages were plated in 96-well plates at 10^4 cells/well and cultured with DMEM-F12 containing 10% FBS and 1μg/mL 22-[N-(7-nitrobenz-2-oxa-1,3-diazol-4-yl)amino]-23,24-bisnor-5-cholen-3β-Ol (NBD-cholesterol) for 24 h. Subsequently, the medium was completely removed and fresh DMEM-F12 containing 10% FBS and 0.1% DMSO (control; n=3 ) or TPHP at the concentration of 1–20,000 nM ( n=3 per group) was added. After a further 24-h incubation, the cells were washed with phosphate-buffered saline (PBS) and then incubated with serum-free medium containing ApoA-I ( 20μg/mL ) or high-density lipoprotein (HDL; 50μg/mL ) for 4 h. Then the medium was collected, and the cells were lysed with a cell lysis buffer. NBD-cholesterol in the medium and cell lysis buffer were measured, respectively, using a Tecan Infinite® M1000Pro Microplate Reader (Tecan Group Ltd.) at 485-nm excitation wavelength and 535-nm emission wavelength. Cholesterol efflux was expressed as a percentage of fluorescence in the medium relative to the total amount of fluorescence.
# All experiments related to animals were approved by the institutional animal care and use committee of Peking University and followed the guidelines for animal experiments of the university as well as for experimental animals in China. […] Body weight (BW) was measured every week during the dosing period. […]
# [2] = test system: human primary preadipocytes; design: method as in Tung et al. 2017; details: ref Tung et al. 2017; cited from earlier work
smiles,measurement,setting,value
"O=P(Oc1ccccc1)(Oc1ccccc1)Oc1ccccc1 [TPHP, triphenyl phosphate]",IC50,human LXRα,1480 nM
same,Contribution to the LXRα-antagonist activity of SRM2585,human LXRα; dust standard reference material SRM2585,33.83%
same,Share of the LXRα-antagonist activity of indoor dust explained by the chemical,human LXRα; range over indoor dust samples (Table S4),0.19–51.07%
same,ApoA-I-mediated cholesterol efflux in peritoneal macrophages,[1],Significant inhibition
same,HDL-mediated cholesterol efflux in peritoneal macrophages,[1],Significant inhibition
same,Adipogenesis,[2],promote adipogenesis
